Measurements: ChEMBL document CHEMBL6153048, “Synthesis and pharmacological evaluation of natural product diphyllin derivatives against head and neck squamous cell carcinoma” (Eur J Med Chem, 2025)
Each block holds one molecule with its values, some of them ahead of it. Calls of active or inactive are those of the source. No cut-off for these calls is given here.

Assays:
CAL-27 [1] = assay: Induction of apoptosis in human CAL-27 cells assessed as viable cells at 1 nM incubated for 72 hrs by Annexin V-FITC/propidium iodide staining based flow cytometry analysis (reference value: 88.23%); type: functional; conditions: read-out: Activity
CAL-27 [2] = assay: Induction of apoptosis in human CAL-27 cells assessed as early apoptotic cells at 1 nM incubated for 72 hrs by Annexin V-FITC/propidium iodide staining based flow cytometry analysis (reference value: 9.16%); type: functional
CAL-27 [3] = assay: Induction of apoptosis in human CAL-27 cells assessed as late apoptotic cells at 1 nM incubated for 72 hrs by Annexin V-FITC/propidium iodide staining based flow cytometry analysis (reference value: 2.57%); type: functional
CAL-27 [4] = assay: Induction of apoptosis in human CAL-27 cells assessed as viable cells at 10 nM incubated for 72 hrs by Annexin V-FITC/propidium iodide staining based flow cytometry analysis (reference value: 88.23%); type: functional; conditions: read-out: Activity
CAL-27 [5] = assay: Induction of apoptosis in human CAL-27 cells assessed as early apoptotic cells at 10 nM incubated for 72 hrs by Annexin V-FITC/propidium iodide staining based flow cytometry analysis (reference value: 9.16%); type: functional
CAL-27 [6] = assay: Induction of apoptosis in human CAL-27 cells assessed as late apoptotic cells at 10 nM incubated for 72 hrs by Annexin V-FITC/propidium iodide staining based flow cytometry analysis (reference value: 2.57%); type: functional
CAL-27 [7] = assay: Induction of apoptosis in human CAL-27 cells assessed as viable cells at 100 nM incubated for 72 hrs by Annexin V-FITC/propidium iodide staining based flow cytometry analysis (reference value: 88.23%); type: functional; conditions: read-out: Activity
CAL-27 [8] = assay: Induction of apoptosis in human CAL-27 cells assessed as early apoptotic cells at 100 nM incubated for 72 hrs by Annexin V-FITC/propidium iodide staining based flow cytometry analysis (reference value: 9.16%); type: functional
CAL-27 [9] = assay: Induction of apoptosis in human CAL-27 cells assessed as late apoptotic cells at 100 nM incubated for 72 hrs by Annexin V-FITC/propidium iodide staining based flow cytometry analysis (reference value: 2.57%); type: functional
CAL-27 [10] = assay: Induction of apoptosis in human CAL-27 cells assessed as early apoptotic cells at 1000 nM incubated for 72 hrs by Annexin V-FITC/propidium iodide staining based flow cytometry analysis (reference value: 9.16%); type: functional
CAL-27 [11] = assay: Induction of apoptosis in human CAL-27 cells assessed as late apoptotic cells at 1000 nM incubated for 72 hrs by Annexin V-FITC/propidium iodide staining based flow cytometry analysis (reference value: 2.57%); type: functional
A549 = assay: Cytotoxicity against human A549 cells incubated for 72 hrs by MTT assay; type: functional, cell-based; conditions: A549, 72 h
CAL-27 [12] = assay: Induction of apoptosis in human CAL-27 cells assessed as viable cells at 1 nM incubated for 72 hrs by Annexin V-FITC/propidium iodide staining based flow cytometry analysis (reference value: 90.41%); type: functional; conditions: read-out: Activity
CAL-27 [13] = assay: Induction of cell cycle arrest in human CAL-27 cells assessed as accumulation of cells at G1 phase at 1 to 1000 nM incubated for 48 hrs by flow cytometry analysis (Rvb= 58.6%); type: functional; conditions: dose 1-1000 nM
CAL-27 [14] = assay: Induction of cell cycle arrest in human CAL-27 cells assessed as accumulation of cells at S phase at 1 to 1000 nM incubated for 48 hrs by flow cytometry analysis (Rvb=18%); type: functional; conditions: dose 1-1000 nM
CAL-27 [15] = assay: Induction of apoptosis in human CAL-27 cells assessed as early apoptotic cells at 1 nM incubated for 72 hrs by Annexin V-FITC/propidium iodide staining based flow cytometry analysis (reference value: 7.74%); type: functional
CAL-27 [16] = assay: Induction of apoptosis in human CAL-27 cells assessed as viable cells at 10 nM incubated for 72 hrs by Annexin V-FITC/propidium iodide staining based flow cytometry analysis (reference value: 90.41%); type: functional; conditions: read-out: Activity
CAL-27 [17] = assay: Induction of apoptosis in human CAL-27 cells assessed as late apoptotic cells at 10 nM incubated for 72 hrs by Annexin V-FITC/propidium iodide staining based flow cytometry analysis (reference value: 1.82%); type: functional
CAL-27 [18] = assay: Induction of apoptosis in human CAL-27 cells assessed as viable cells at 100 nM incubated for 72 hrs by Annexin V-FITC/propidium iodide staining based flow cytometry analysis (reference value: 90.41%); type: functional; conditions: read-out: Activity
CAL-27 [19] = assay: Induction of apoptosis in human CAL-27 cells assessed as early apoptotic cells at 100 nM incubated for 72 hrs by Annexin V-FITC/propidium iodide staining based flow cytometry analysis (reference value: 7.74%); type: functional
CAL-27 [20] = assay: Induction of apoptosis in human CAL-27 cells assessed as late apoptotic cells at 100 nM incubated for 72 hrs by Annexin V-FITC/propidium iodide staining based flow cytometry analysis (reference value: 1.82%); type: functional
CAL-27 [21] = assay: Induction of apoptosis in human CAL-27 cells assessed as apoptotic cells at 1 nM incubated for 72 hrs by Annexin V-FITC/propidium iodide staining based flow cytometry analysis (reference value: 10.29%); type: functional
CAL-27 [22] = assay: Induction of apoptosis in human CAL-27 cells assessed as apoptotic cells at 10 nM incubated for 72 hrs by Annexin V-FITC/propidium iodide staining based flow cytometry analysis (reference value: 10.29%); type: functional
CAL-27 [23] = assay: Induction of apoptosis in human CAL-27 cells assessed as apoptotic cells at 100 nM incubated for 72 hrs by Annexin V-FITC/propidium iodide staining based flow cytometry analysis (reference value: 10.29%); type: functional
CAL-27 [24] = assay: Induction of apoptosis in human CAL-27 cells assessed as viable cells at 1000 nM incubated for 72 hrs by Annexin V-FITC/propidium iodide staining based flow cytometry analysis (reference value: 90.41%); type: functional; conditions: read-out: Activity
CAL-27 [25] = assay: Induction of apoptosis in human CAL-27 cells assessed as late apoptotic cells at 1000 nM incubated for 72 hrs by Annexin V-FITC/propidium iodide staining based flow cytometry analysis (reference value: 1.82%); type: functional
CAL-27 [26] = assay: Effect on cell growth factor in human CAL-27 cells assessed as regulation of cell growth factor related gene expression at 1 nM incubated for 48 hrs by GO analysis; type: functional, cell-based
CAL-27 [27] = assay: Effect on apoptosis in human CAL-27 cells assessed as regulation of gene expression at 1 nM incubated for 48 hrs by GSEA analysis; type: functional, cell-based
[28] = Half life in ICR mouse at 3 mg/kg, po measured upto 24 hrs by LC-MS/MS analysis; type: ADME, organism-based; conditions: in vivo
CAL-27 [29] = assay: Antitumor activity against human CAL-27 cells xenografted in BALB/c mouse model assessed as tumor volume change at 0.3 mg/kg, iv treated four times a week for 30 days; type: functional; conditions: CAL-27, 720 h, time 30 day, read-out: TGI
[30] = Toxicity in BALB/c mouse xenografted with human CAL-27 cells assessed as body weight at 0.3 mg/kg, iv treated four times a week for 30 days; type: organism-based; conditions: in vivo, 720 h, time 30 day
[31] = Toxicity in BALB/c mouse xenografted with human CAL-27 cells assessed as body weight at 0.6 mg/kg, iv treated four times a week for 30 days; type: organism-based; conditions: in vivo, 720 h, time 30 day
CAL-27 [32] = assay: Antitumor activity against human CAL-27 cells xenografted in BALB/c mouse model assessed as cancer cell death at 0.6 mg/kg, iv treated four times a week for 30 days by HE staining analysis; type: functional, organism-based; conditions: time 30.0 day

SMILES: COc1cc2c(O)c3c(c(-c4ccc5c(c4)OCO5)c2cc1OC)C(=O)OC3 [DIPHYLLIN]
viability at 0.001 µM (CAL-27 [1]): 91.4% | Activity (CAL-27 [2]): 2.68% | Activity (CAL-27 [3]): 5.83% | viability at 0.01 µM (CAL-27 [4]): 94.8% | Activity (CAL-27 [5]): 3.78% | Activity (CAL-27 [6]): 1.34% | viability at 0.1 µM (CAL-27 [7]): 92.5% | Activity (CAL-27 [8]): 4.87% | Activity (CAL-27 [9]): 2.58% | Activity (CAL-27 [10]): 12.06% | Activity (CAL-27 [11]): 5.03%

half-life [28]: 31 min
SMILES: COc1cc2c(O[C@@H]3O[C@@H]4CO[C@@H](c5ccsc5)O[C@H]4[C@H](O)[C@H]3O)c3c(c(-c4ccc5c(c4)OCO5)c2cc1OC)C(=O)OC3
IC50 (A549): 117 nM | viability at 0.001 µM (CAL-27 [12]): 93% | Activity (CAL-27 [13]): 78.7% | Activity (CAL-27 [14]): 6% | Activity (CAL-27 [15]): 4.74% | viability at 0.01 µM (CAL-27 [16]): 55% | Activity (CAL-27 [17]): 25.74% | viability at 0.1 µM (CAL-27 [18]): 28.6% | Activity (CAL-27 [19]): 27.61% | Activity (CAL-27 [20]): 41.19% | Activity (CAL-27 [21]): 15.78% | Activity (CAL-27 [22]): 41.84% | Activity (CAL-27 [23]): 50.9% | viability at 1 µM (CAL-27 [24]): 28.1% | Activity (CAL-27 [25]): 36.94% | Activity (CAL-27 [26]): Active | Activity (CAL-27 [27]): Active | inhibition in vivo at 0.3 mg/kg (CAL-27 [29]): 29.2% | Activity [30]: Non-toxic | Activity [31]: Non-toxic | Activity (CAL-27 [32]): Active
